Key:
HSV-2 (333) = test: Infectivity of HSV-2 (333) pretreated with SLS on Vero cells (PFU); type: cell-based, Herpes simplex virus type-2
Method: (§1) The effect of pretreating different strains of herpes viruses with SLS or DS on their viral infectivities to susceptible cells has been evaluated. In brief, cells were seeded in 24 well-plates (Costar, Montreal, QC, Canada). Prior to infection, the virus was either suspended in culture medium or phosphate buffered saline (PBS), or incubated with different concentrations of SLS in PBS for 1 h at 37° C. At confluency, cells were incubated with viral suspensions by centrifuging the plates (750× g for 45 min at 20° C.) to allow virus adsorption. Virus was removed and cell sheets were then overlaid with 0.5 ml of 0.6% agarose Seaplaque (Marine Colloids, Rockland, Md.) prepared in appropriate culture medium. The plates were incubated for 2 days at 37° C. Cells were then fixed with 10% formaldehyde in PBS for 20 min, washed with deionized water and stained with 0.05% methylene blue. Viral infectivity was evaluated via the determination of Plaque Forming Units (PFU).

HSV-2 (22) = test: Infectivity of HSV-2 (22) pretreated with SLS on Vero cells (PFU); type: cell-based, Herpes simplex virus type-2
Method: as §1

[1] = test system: glycoprotein D gene of HSV-1 (strain F); test: Quantification of HSV glycoprotein D gene in Vero cells infected with pretreated virus (hybridization, densitometry); type: cell-based, Herpes simplex virus type-1; settings: 48 h infection
Method: The quantification of the glycoprotein D gene of HSV-1 (strain F) pretreated with SLS was also evaluated in Vero cells in order to determine the presence of viral DNA in the infected cells. In brief, HSV-1 (strain F) was pretreated with varying SLS concentrations (12.5, 25, 50, 75 and 100 μM) in EMEM +2% FBS for 1 h at 37° C. Vero cells (80–90% confluent) were infected with the virus (100 PFU/ml in 20 ml) for 48 h at 37° C. in a 5% CO2 atmosphere. The culture medium was removed and cell sheet was washed twice with 1× HBSS. Cells were scrapped off from the dishes and resuspended in EMEM +2% FBS. Total DNA was extracted using a standard phenol/chloroform procedure. Quantitation of total DNA was achieved using the Burton procedure. The probe used for this study corresponds to a part of glycoprotein D of HSV-2 (strain 333), generated by PCR using the following primers: • P1 (5′-[…]-3′) and • P2 (5′-[…]-3′) and was [^32P]-labeled by random priming. Hybridization was performed at 65° C. in 0.25 M Na2HPO4 (pH 6.8 with orthophosphoric acid) and 7% SDS. Washes were done in 40 mM Na2HPO4 (pH 6.8 with orthophosphoric acid) and 1% SDS for 20 min at 65° C. followed by 20 min at 25° C.
Following a 48 h incubation, cells were collected and total DNA was extracted. […] Quantitative measurements of HSV-1 DNA levels obtained by scanning densitometry of the autoradiogram were similar (Panel B).

HSV-2 = settings: Howett et al., 1999; cited from earlier work
HIV-1 = settings: Howett et al., 1999; cited from earlier work
[2] = virus pretreated with 6.25 μM SLS for 1 hour at 37° C.
[3] = virus pretreated with 12.5 μM SLS for 1 hour at 37° C.
[4] = virus pretreated with 25 μM SLS for 1 hour at 37° C.
[5] = virus pretreated with 50 μM SLS for 1 hour at 37° C.

CCCCCCCCCCCCOS(=O)(=O)[O-].[Na+] [SLS, Sodium lauryl sulfate]
PFU (% of control) for HSV-2 (333) (HSV-2 (333); [2]): 102.9 ± 23.5 % of control | PFU (% of control) for HSV-2 (333) (HSV-2 (333); [3]): 115.4 ± 17.0 % of control | PFU (% of control) for HSV-2 (333) (HSV-2 (333); [4]): 72.9 ± 9.1 % of control | PFU (% of control) for HSV-2 (333) (HSV-2 (333); [5]): 0 % of control | PFU (% of control) for HSV-2 (22) (HSV-2 (22); [2]): 128.0 ± 18.5 % of control | PFU (% of control) for HSV-2 (22) (HSV-2 (22); [3]): 103.4 ± 14.9 % of control | PFU (% of control) for HSV-2 (22) (HSV-2 (22); [4]): 63.8 ± 11.9 % of control | PFU (% of control) for HSV-2 (22) (HSV-2 (22); [5]): 0 % of control | HSV-1 DNA levels (glycoprotein D gene) ([1]; virus pretreated with 75 μM SLS for 1 h at 37° C.): 65.1 % of control values | HSV-1 DNA levels (glycoprotein D gene) ([1]; virus pretreated with 100 μM SLS for 1 h at 37° C.): 34.9 % of control values | expression of the glycoprotein D gene compared to control ([1]; virus pretreated with 12.5, 25 and 50 μM SLS for 1 h at 37° C.): No major modification | inactivation of HSV-2 (HSV-2): potent inactivator | inactivation of HIV-1 (HIV-1): potent inactivator

From patent publication US7192607B2, “Formulations for the prevention or the treatment of diseases affecting mucosae or skin, or for pregnancy prevention, and an applicator for the delivery of topical formulations into mucosal cavities” (Infectio Recherche Inc, priority 2002, dated 2007)
